Measurements: patent US20120065170A1, “Antimicrobial Cyclocarbonyl Heterocyclic Compounds For Treatment Of Bacterial Infections” (priority 2010, published 2012)
Values after ≈ are worked out from the molar mass of the structure shown. Where two headings read alike, the source gives them in different places.

Experiments:
H. influenzae = assay: MIC against isolates of H. influenzae; assay type: cell-based, Haemophilus influenzae; conditions: for MIC: Haemophilus influenzae
Description: (§1) Compounds of this invention can have useful activity against a variety of pathogenic microorganisms. The in vitro activity of compounds of this invention can be assessed by standard testing procedures such as the determination of minimum inhibitory concentration (MIC) by agar dilution as described in “Approved Standard. Methods for Dilution Antimicrobial Susceptibility Tests for Bacteria That Grow Aerobically”, 3rd. ed., published 1993 by the National Committee for Clinical Laboratory Standards, Villanova, Pa., USA. Minimum inhibitory concentration (MIC) refers to the lowest concentration of drug (μg/mL) that inhibits visible growth of the organism. Lower MIC values indicate a higher antibacterial activity. Typically, compounds of the present invention have useful potency against Gram-positive or Gram-negative pathogens with MIC values of ≦8 μg/mL. To measure useful antibacterial activity against multiple bacterial isolates or strains, MIC90 (or minimal inhibitory concentration of the drug that inhibits visible growth of 90% of the microbes in each bacterial specie panel) is determined. Lower MIC number indicates an elevated degree of useful antibacterial activity, while higher MIC number indicates a reduced antibacterial activity. An agent with too high MIC against a bacterial pathogen can not be used for the treatment of infections caused by such microbial species.
The useful activity of representative compounds of the present invention against several isolates of H. influenzae is illustrated by the MIC data of Table 3. H. influenzae is a fastidious Gram-negative pathogen implicated in multiple infections, including pneumonia and bacterial meningitis. No oxazolidinone agent is presently approved for the treatment of H. influenzae infections.

S. pneumoniae = assay: MIC90 against linezolid-susceptible S. pneumoniae; assay type: cell-based, Streptococcus pneumoniae; conditions: for MIC90: Streptococcus pneumoniae, read-out: S. pneumoniae (34 strains) MIC90
Description: as §1
(§2) The useful activity of compounds of the present invention against an expanded set of clinical isolates of Staphylococcus aureus (including methicillin-resistant strain, MRSA), Enterococci (including Enterococcus faecalis and Enterococus faecium), and […] is illustrated by the MIC90 data in Table 1.

reticulocytes = assay: 5-days mouse sub-acute toxicity test (myelosuppression, reticulocyte count); assay type: in vivo; conditions: for Ratio for reticulocyte count relative to that for compound of Example 1 / fold drop in the reticulocyte cells counts compared to compound of Example 1: 37.5 mg/kg/day twice-daily, day 5
Procedure: The potential of representative compounds of this invention for myelosuppression has been evaluated in a 5-days mouse sub-acute toxicity test. For comparison purposes, Reference Compound 14 (Example 143 of publication US 2003/0166620) and Reference Compound 15 (TR-700 or torezolid; publications PCT WO2005/058886 and PCT WO2010/042887) have been included. The compounds were dosed to mice at 37.5 mg/kg/day on a twice-daily schedule. On day 5, blood was harvested for hematology testing. The toxicity was evaluated based on the reduction in the number of reticulocytes, previously described as the key marker for myelosuppression signs in pre-clinical testing of oxazolidinones, including linezolid. Thus, a higher degree of a reduction in the reticulocyte count is indicative of an elevated toxicity, while a lower drop in the reticulocyte count indicates a reduced propensity to the myelosuppression effect on the blood cells.

Enterococci = assay: MIC90 against linezolid-susceptible Enterococci; assay type: cell-based; conditions: for MIC90: Enterococcus faecalis, 34 strains, linezolid-susceptible
Description: as §1, §2

[1] = tested on: linezolid-resistant E. faecalis; assay: MIC against linezolid-resistant E. faecalis strains; assay type: cell-based, Enterococus faecalis; conditions: one value per group of strains; for MIC: Enterococcus faecalis, read-out: E. faecalis (no. of strains) MIC
Description: as §1
(§3) The useful activity of representative compounds of the present invention against several isolates of linezolid-resistant Staphylococcus aureus, Enterococus faecalis and Enterococcu faecium illustrated by the MIC data of Table 2.

[2] = tested on: linezolid-resistant E. faecium; assay: MIC against linezolid-resistant E. faecium strains; assay type: cell-based, Enterococcus faecium; conditions: one value per group of strains; for MIC: Enterococcus faecium, read-out: E. faecium (no. of strains) MIC
Description: as §1, §3

S. aureus = assay: MIC90 against linezolid-susceptible clinical isolates of S. aureus; assay type: cell-based, Staphylococcus aureus; conditions: for MIC90: Staphylococcus aureus, 34 strains, linezolid-susceptible, including MRSA
Description: as §1, §2

[3] = tested on: key Gram-positive pathogens; assay: MIC against key Gram-positive pathogens, further compounds (tests of Table 1); assay type: cell-based; conditions: in the tests of Table 1
Description: as §1, §2

[4] = tested on: linezolid-resistant bacterial strains; conditions: cited from earlier work
Staphylococcus species = conditions: cited from earlier work
[5] = tested on: linezolid-resistant S. aureus; assay: MIC against linezolid-resistant S. aureus strains; assay type: cell-based, Staphylococcus aureus; conditions: one value per group of strains; for MIC: Staphylococcus aureus, read-out: S. aureus (no. of strains) MIC
Description: as §1, §3

Haemophilus influenzae = conditions: reported value; cited from earlier work
[6] = one value per group of strains, read-out: H. influenzae (no. of strains) MIC
[7] = read-out: MIC values against H. influenzae as summarised in text, summary of Table 3
[8] = 34 strains, linezolid-susceptible
[9] = versus Reference Compound 15, Table 1 data
[10] = mice, 37.5 mg/kg/day on a twice-daily schedule, blood on day 5

O=C1O[C@@H](CO)CN1c1ccc(-c2ccc(N3CCOC3=O)nc2)c(F)c1 [Example 1]
MIC (H. influenzae; [6]): 2 µg/mL (≈ 5.36 µM) | MIC (H. influenzae; [7]): < 4 µg/mL | H. influenzae (no. of strains) MIC (H. influenzae; one value per group of strains): 4 (1 strain)^ μg/mL | MIC90 (S. pneumoniae; [8]): 0.06 µg/mL (≈ 0.161 µM) | MIC90 fold lower than Reference Compound 15, S. pneumoniae (S. pneumoniae; [9]): about 4 fold | MIC90 fold lower than linezolid, S. pneumoniae (S. pneumoniae; versus linezolid, Table 1 data): about 16 fold | Reticulocyte count on Day 5, cell count (reticulocytes; [10]): 1.275e+11 L⁻¹ | Ratio for reticulocyte count relative to that for compound of Example 1 (reticulocytes; mice): 1 | MIC90 (Enterococci): 0.25 µg/mL (≈ 0.67 µM) | MIC90 fold lower than Reference Compound 15, Enterococci species (Enterococci; [9]): ~2 fold | MIC90 fold lower than linezolid, Enterococci species (Enterococci; versus linezolid, Table 1 data): ~8 fold | MIC [1]: 0.5 µg/mL (≈ 1.34 µM) | E. faecalis (no. of strains) MIC [1]: 1 (3 strains) μg/mL | MIC [2]: 0.5 µg/mL (≈ 1.34 µM) | MIC90 (S. aureus): 0.125 µg/mL (≈ 0.335 µM) | MIC90 fold lower than Reference Compound 15, S. aureus (S. aureus; [9]): about 4 fold | MIC90 fold lower than linezolid, S. aureus (S. aureus; versus linezolid, Table 1 data): about 16 fold

O=C1O[C@@H](CO)CN1c1ccc(-c2ccc(N3CCNC3=O)nc2)c(F)c1 [Example 7]
MIC values compared to linezolid or Reference Compound 15 [3]: lower range MIC values | MIC [2]: 0.5 µg/mL (≈ 1.34 µM) | E. faecium (no. of strains) MIC [2]: 1 (4 strains) μg/mL

O=C1O[C@@H](CO)CN1c1ccc(-c2ccc(N3CCCC3=O)nc2)c(F)c1 [Example 10]
MIC (H. influenzae; [6]): 4 µg/mL (≈ 10.8 µM) | MIC (H. influenzae; [7]): < 4 µg/mL | MIC values compared to linezolid or Reference Compound 15 [3]: lower range MIC values | MIC [1]: 1 µg/mL (≈ 2.69 µM) | E. faecalis (no. of strains) MIC [1]: 2 (3 strains) μg/mL | MIC [2]: 1 µg/mL (≈ 2.69 µM)

O=C1O[C@@H](CO)CN1c1ccc(-c2ccc(N3CCOC3=O)nc2)cc1 [Example 13]
MIC (H. influenzae; [6]): 4 µg/mL (≈ 11.3 µM) | MIC values compared to linezolid or Reference Compound 15 [3]: lower range MIC values

CC(=O)NC[C@H]1CN(c2ccc(N3CCOCC3)c(F)c2)C(=O)O1 [Linezolid, linezolid]
MIC (H. influenzae; [6]): 8 µg/mL (≈ 23.7 µM) | H. influenzae (no. of strains) MIC (H. influenzae; one value per group of strains): 16 (2 strains) μg/mL | MIC90 (S. pneumoniae; [8]): 1 µg/mL (≈ 2.96 µM) | MICs against linezolid-resistant bacterial strains [4]: ≥ 8 µg/mL | MIC against Staphylococci species (such as S. aureus) (Staphylococcus species; generally displayed): 2 to 4 µg/mL | useful MIC90 against Gram-positive Staphylococcus species (Staphylococcus species; species for which the drug is indicated): 2 to 4 µg/mL | MIC90 (Enterococci): 2 µg/mL (≈ 5.93 µM) | MIC [5]: 16 µg/mL (≈ 47.4 µM) | S. aureus (no. of strains) MIC [5]: >16 (3 strains) μg/mL | MIC [1]: 16 µg/mL (≈ 47.4 µM) | MIC90 against Haemophilus influenzae (typical) (Haemophilus influenzae): 16 µg/mL (≈ 47.4 µM) | MIC [2]: 16 µg/mL (≈ 47.4 µM) | MIC90 (S. aureus): 2 µg/mL (≈ 5.93 µM)

CC(=O)NC[C@H]1CN(c2ccc(-c3ccc(N4CCOC4=O)nc3)c(F)c2)C(=O)O1 [Ref. Cpd. 14, N-[[(5S)-3-[3-fluoro-4-[6-(2-oxooxazolidin-3-yl)-3-pyridyl]phenyl]-2-oxo-oxazolidin-5-yl]methyl]acetamide]
Reticulocyte count on Day 5, cell count (reticulocytes; [10]): 5e+10 L⁻¹ | Ratio for reticulocyte count relative to that for compound of Example 1 (reticulocytes; mice): 0.39 | fold drop in the reticulocyte cells counts compared to compound of Example 1 (reticulocytes; mice): ~2.6 fold

Cn1nnc(-c2ccc(-c3ccc(N4C[C@H](CO)OC4=O)cc3F)cn2)n1 [Ref. Cpd. 15, (5R)-3-[3-fluoro-4-[6-(2-methyltetrazol-5-yl)-3-pyridyl]phenyl]-5-(hydroxymethyl)oxazolidin-2-one]
MIC (H. influenzae; [6]): > 16 µg/mL | H. influenzae (no. of strains) MIC (H. influenzae; one value per group of strains): 8 (4 strains) μg/mL | MIC90 (S. pneumoniae): 0.25 µg/mL (≈ 0.675 µM) | Ratio for reticulocyte count relative to that for compound of Example 1 (reticulocytes; mice): 0.15 | fold drop in the reticulocyte cells counts compared to compound of Example 1 (reticulocytes; mice): ~2.6 fold | Reticulocyte count on Day 5, cell count (reticulocytes; mouse, in vivo, 37.5 mg/kg/day, 5 days): 1.91e+10 L⁻¹ | MIC90 (Enterococci): 0.5 µg/mL (≈ 1.35 µM) | MIC [5]: 8 µg/mL (≈ 21.6 µM) | S. aureus (no. of strains) MIC [5]: 4 (2 strains) μg/mL | MIC [1]: 4 µg/mL (≈ 10.8 µM) | MIC [2]: 4 µg/mL (≈ 10.8 µM) | E. faecium (no. of strains) MIC [2]: 2 (1 strain)^ μg/mL | MIC90 (S. aureus): 0.5 µg/mL (≈ 1.35 µM)
